According to patent US20240391862A1, “(1,4,5-TRISUBSTITUTED-1H-PYRAZOL-3-YL)OXY-2-ALKOXY ALKYL ACIDS AND THEIR DERIVATIVES, THEIR SALTS AND THEIR USE AS HERBICIDAL AGENTS” (Bayer AKtiengesellschaft, priority 2021, published 2024):

Experiments:
[1] = tested on: LOLRI; experiment: Post-emergence herbicidal effect, greenhouse pot test; format: in vivo, Lolium rigidum
Outline: (§1)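 Sandy loam pots, greenhouse. One-leaf stage (2–3 wk after sowing) foliar spray; WP/EC in water + 0.5% additive, 600 l/ha; 20–320 g/ha. Visual score ~3 wk, 0–100% vs untreated.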

[2] = tested on: DIGSA; experiment: as above; format: in vivo, Digitaria sanguinalis; settings: 320 g/ha, visual rating about 3 weeks after treatment
Outline: as §1

[3] = tested on: KCHSC; experiment: as above; format: in vivo
Outline: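 Visual rating of activity against untreated plants (100% = plants died, 0% = no effect), done about 3 weeks after treatment. Compounds applied at 20–320 g/ha as aqueous spray (600 l/ha, 0.5% additive) from WP or EC formulations onto one-leaf-stage plants grown in sandy loam under greenhouse conditions.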

[4] = tested on: ECHCG; experiment: as above; format: in vivo, Echinochloa crus-galli
Outline: as §1

[5] = tested on: ZEAMX; experiment: Post-emergence herbicidal effect and crop plant compatibility, greenhouse pot test; format: in vivo, Zea mays; settings: one-leaf stage, rated visually after about 3 weeks vs untreated controls
Outline: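 Greenhouse pot plants in sandy loam receive a one-leaf-stage spray at 20 to 320 g/ha. Activity is assessed visually around 3 weeks afterwards on a 0–100% scale, where 100% means the plants have died.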

[6] = tested on: ABUTH; experiment: Post-emergence herbicidal effect, greenhouse pot test; format: in vivo, Abutilon theophrasti; settings: visual rating about 3 weeks after treatment
Outline: as §1

[7] = tested on: PHBPU; experiment: as above; format: in vivo, Ipomoea purpurea
Outline: as §1

[8] = tested on: VIOTR; experiment: as above; format: in vivo, Viola tricolor
Outline: as §1

[9] = tested on: SETVI; experiment: as above; format: in vivo, Setaria viridis
Outline: as §1

[10] = tested on: ALOMY; experiment: as above; format: in vivo, Alopecurus myosuroides; settings: visual rating about 3 weeks after treatment
Outline: as §1

[11] = tested on: POLCO; experiment: as above; format: in vivo, Fallopia convolvulus; settings: 320 g/ha
Outline: as §1

[12] = tested on: AVEFA; experiment: as above; format: in vivo, Avena fatua; settings: visual rating about 3 weeks after treatment
Outline: as §1

[13] = tested on: VERPE; experiment: as above; format: in vivo, Veronica persica
Outline: as §1

[14] = tested on: MATIN; experiment: as above; format: in vivo, Tripleurospermum inodorum; settings: Tripleurospermum inodorum, 504 h, read-out: Post-emergence effect against MATIN in %
Outline: as §1

[15] = 504 h, read-out: Post-emergence effect against KCHSC in %
[16] = Veronica persica, 504 h, read-out: Post-emergence effect against VERPE in %

With COC(=O)C(OC)Oc1nn(-c2ncccc2F)c(-c2ccc(F)nc2)c1C1CC1 (stereo not drawn) [Example I-108] the “Post-emergence effect against LOLRI in %” value ([1]; 320 g/ha) was 90%, the “Post-emergence effect against DIGSA” value [2] was 90% and the “Post-emergence effect against KCHSC in %” value ([3]; 320 g/ha) was 90%. For the same compound, the pest or weed control at 80 g/ha [3, 15] was 90%, the “Post-emergence effect against ECHCG in %” value ([4]; 80 g/ha) was 90% and the “Post-emergence effect against ECHCG in %” value ([4]; 320 g/ha) was 90%. For the same compound, the “Post-emergence effect at 20 g/ha against ZEAMX in %” value ([5]; 20 g/ha) was 0%, the “Post-emergence effect at 80 g/ha against ZEAMX in %” value ([5]; 80 g/ha) was 0% and the plant injury at 320 g/ha ([5]; Zea mays, 504 h, 320 g/ha, read-out: Post-emergence effect at 320 g/ha against ZEAMX in %) was 0%. For the same compound, the “Post-emergence effect against ABUTH” value ([6]; 80 g/ha) was 80%, the “Post-emergence effect against ABUTH” value ([6]; 320 g/ha) was 90% and the “Post-emergence effect against PHBPU in %” value ([7]; 80 g/ha) was 80%. For the same compound, the “Post-emergence effect against PHBPU in %” value ([7]; 320 g/ha) was 90%, the “Post-emergence effect against VIOTR in %” value ([8]; 80 g/ha) was 90% and the “Post-emergence effect against VIOTR in %” value ([8]; 320 g/ha) was 90%. The “Post-emergence effect against SETVI in %” value ([9]; 320 g/ha) was 90%, the “Post-emergence effect against ALOMY” value ([10]; 320 g/ha) was 100% and the pest or weed control at 80 g/ha ([10]; Alopecurus myosuroides, 504 h, 80 g/ha, read-out: Post-emergence effect against ALOMY) was 90%. For the same compound, the “Post-emergence effect against POLCO in %” value [11] was 80%, the “Post-emergence effect against AVEFA” value ([12]; 80 g/ha) was 90% and the “Post-emergence effect against AVEFA” value ([12]; 320 g/ha) was 90%. The “Post-emergence effect against VERPE in %” value ([13]; 320 g/ha) was 80% and the pest or weed control at 80 g/ha [13, 16] was 80%.
Compound COC(=O)C(OC)Oc1nn(-c2ncccc2F)c(-c2cncc(F)c2)c1Br (stereo not drawn) [Example I-91] has a pest or weed control at 80 g/ha ([1]; Lolium rigidum, 504 h, 80 g/ha, read-out: Post-emergence effect against LOLRI in %) of 90%, a pest or weed control at 320 g/ha ([1]; Lolium rigidum, 504 h, 320 g/ha, read-out: Post-emergence effect against LOLRI in %) of 90% and a pest or weed control at 80 g/ha ([14]; 80 g/ha) of 80%. It also gave a pest or weed control at 320 g/ha ([14]; 320 g/ha) of 80%, a pest or weed control at 320 g/ha ([2]; Digitaria sanguinalis, 504 h, read-out: Post-emergence effect against DIGSA) of 90% and a pest or weed control at 20 g/ha ([3]; 504 h, 20 g/ha, read-out: Post-emergence effect against KCHSC in %) of 80%. It also gave a pest or weed control at 80 g/ha [3, 15] of 80%, a pest or weed control at 320 g/ha ([3]; 504 h, 320 g/ha, read-out: Post-emergence effect against KCHSC in %) of 90% and a pest or weed control at 20 g/ha ([4]; Echinochloa crus-galli, 504 h, 20 g/ha, visual rating about 3 weeks after treatment, read-out: Post-emergence effect against ECHCG) of 80%. For the same compound, the pest or weed control at 80 g/ha ([4]; Echinochloa crus-galli, 504 h, 80 g/ha, read-out: Post-emergence effect against ECHCG in %) was 80%, the pest or weed control at 320 g/ha ([4]; Echinochloa crus-galli, 504 h, 320 g/ha, read-out: Post-emergence effect against ECHCG in %) was 90% and the pest or weed control at 80 g/ha ([6]; Abutilon theophrasti, 504 h, 80 g/ha, read-out: Post-emergence effect against ABUTH) was 80%. For the same compound, the pest or weed control at 320 g/ha ([6]; Abutilon theophrasti, 504 h, 320 g/ha, read-out: Post-emergence effect against ABUTH) was 80%, the pest or weed control at 20 g/ha ([7]; Ipomoea purpurea, 504 h, 20 g/ha, read-out: Post-emergence effect against PHBPU in %) was 80% and the pest or weed control at 80 g/ha ([7]; Ipomoea purpurea, 504 h, 80 g/ha, read-out: Post-emergence effect against PHBPU in %) was 80%. It also gave a pest or weed control at 320 g/ha ([7]; Ipomoea purpurea, 504 h, 320 g/ha, read-out: Post-emergence effect against PHBPU in %) of 80%, a pest or weed control at 20 g/ha ([8]; Viola tricolor, 504 h, 20 g/ha, read-out: Post-emergence effect against VIOTR in %) of 80% and a pest or weed control at 80 g/ha ([8]; Viola tricolor, 504 h, 80 g/ha, read-out: Post-emergence effect against VIOTR in %) of 80%. The pest or weed control at 320 g/ha ([8]; Viola tricolor, 504 h, 320 g/ha, read-out: Post-emergence effect against VIOTR in %) was 80%, the pest or weed control at 20 g/ha ([9]; Setaria viridis, 504 h, 20 g/ha, read-out: Post-emergence effect against SETVI in %) was 80% and the pest or weed control at 80 g/ha ([9]; Setaria viridis, 504 h, 80 g/ha, read-out: Post-emergence effect against SETVI in %) was 80%. It also gave a pest or weed control at 320 g/ha ([9]; Setaria viridis, 504 h, 320 g/ha, read-out: Post-emergence effect against SETVI in %) of 80%, a pest or weed control at 320 g/ha ([10]; Alopecurus myosuroides, 504 h, 320 g/ha, read-out: Post-emergence effect against ALOMY) of 80% and a pest or weed control at 320 g/ha ([11]; Fallopia convolvulus, 504 h, read-out: Post-emergence effect against POLCO in %) of 80%. It also gave a pest or weed control at 80 g/ha ([12]; Avena fatua, 504 h, 80 g/ha, read-out: Post-emergence effect against AVEFA) of 90%, a pest or weed control at 320 g/ha ([12]; Avena fatua, 504 h, 320 g/ha, read-out: Post-emergence effect against AVEFA) of 90% and a pest or weed control at 80 g/ha [13, 16] of 80%. For the same compound, the pest or weed control at 320 g/ha ([13]; Veronica persica, 504 h, 320 g/ha, read-out: Post-emergence effect against VERPE in %) was 80%.
